Results taken from patent US6747033B2, “Fungicidal triazolopyrimid-7-ylideneamines” (BASF Aktiengesellschaft, priority 2000, dated 2004).
Read-outs that look alike come from different tables or passages of the source.

How the values were obtained:
Cercospora beticola = experiment: In vivo fungicidal activity, Sugar Beet Cercospora (SBC); further: ranges in brackets are in %
Blumeria graminis = experiment: In vivo fungicidal activity, Wheat powdery mildew (WPM); further: ranges in brackets are in %
[1] = tested on: Pyricularia grisea f. sp. oryzae; type: in vivo; settings: Rice Blast
Venturia inaequalis = experiment: In vivo fungicidal activity, Apple Scab (AS); further: ranges in brackets are in %
Alternara solani = experiment: In vivo fungicidal activity, Tomato early blight (TEB); further: ranges in brackets are in %
Botrytis cinera = experiment: In vivo fungicidal activity, Pepper Botrytis (PB); further: ranges in brackets are in %
Plasmopara viticola = experiment: In vivo fungicidal activity, Grape downy mildew (GDM); further: ranges in brackets are in %
Pythium ultimum = experiment: In vitro fungicidal activity, Fruit rot (PYTHUL); type: cell-based; set-up: key: 0: None; 3: slight; 5: moderate; 7: severe; 9: complete; settings: 3-7 days of incubation
Method: (§1) Test compounds are dissolved in acetone to give concentrations of 25, 10 and 1 ppm and are added to individual cell Walls (24-cell-well plates, Corning), which were previously filled with a suspension of ground plates, Corning), which were previously filled with a suspension of ground fungal mycelium in a chemically defined growth medium. After 3-7 days of incubation, inhibition of […] growth is recorded using the following scale: The data obtained are shown in Table II. [table]

Rhizoctonia solani = experiment: In vitro fungicidal activity, Rice sheath blight (RHIZSO); type: cell-based; set-up: key: 0: None; 3: slight; 5: moderate; 7: severe; 9: complete; settings: 3-7 days of incubation
Method: as §1

[2] = tested on: Pseudocercosporella herpotrichoides; experiment: In vitro fungicidal activity, Cereal eye spot (PSDCHE); type: cell-based; set-up: key: 0: None; 3: slight; 5: moderate; 7: severe; 9: complete; settings: 3-7 days of incubation
Method: as §1

Compound | SBC disease control rating (Cercospora beticola; 12.5 ppm spray) | SBC disease control rating (Cercospora beticola; 50 ppm spray) | WPM disease control rating (Blumeria graminis; 12.5 ppm spray) | WPM disease control rating (Blumeria graminis; 50 ppm spray) | RB disease control rating ([1]; 12.5 ppm spray) | RB disease control rating ([1]; 50 ppm spray) | AS disease control rating (Venturia inaequalis; 12.5 ppm spray) | AS disease control rating (Venturia inaequalis; 50 ppm spray) | TEB disease control rating (Alternara solani; 12.5 ppm spray) | TEB disease control rating (Alternara solani; 50 ppm spray) | PB disease control rating (Botrytis cinera; 12.5 ppm spray) | PB disease control rating (Botrytis cinera; 50 ppm spray) | GDM disease control rating (Plasmopara viticola; 12.5 ppm spray) | GDM disease control rating (Plasmopara viticola; 50 ppm spray) | WPM disease control rating (Blumeria graminis; 200 ppm spray) | RB disease control rating ([1]; 200 ppm spray) | AS disease control rating (Venturia inaequalis; 200 ppm spray) | TEB disease control rating (Alternara solani; 200 ppm spray) | PB disease control rating (Botrytis cinera; 200 ppm spray) | GDM disease control rating (Plasmopara viticola; 200 ppm spray) | other results
CCCn1c(Cl)c(-c2c(F)cc(OC)cc2F)c(=NC(C)C(F)(F)F)n2ncnc12 (centres unmarked) [Example 4] | 0 (0) | 0 (0) | 0 (0) | 0 (0) | 0 (0) | 0 (0) | 0 (0) | 0 (0) | 0 (0) | 0 (0) | 0 (0) | 0 (0) | 0 (0) | 0 (0) |  |  |  |  |  |  | SBC disease control rating (Cercospora beticola; 3.1 ppm spray): 0 (0); WPM disease control rating (Blumeria graminis; 3.1 ppm spray): 0 (0); RB disease control rating ([1]; 3.1 ppm spray): 0 (0); AS disease control rating (Venturia inaequalis; 3.1 ppm spray): 0 (0); TEB disease control rating (Alternara solani; 3.1 ppm spray): 3 (30-44); PB disease control rating (Botrytis cinera; 3.1 ppm spray): 0 (0); GDM disease control rating (Plasmopara viticola; 3.1 ppm spray): 4 (45-59)
CCCn1cnn2c(=NC(C)C(F)(F)F)c(-c3c(F)cc(F)cc3F)c(Cl)nc12 (centres unmarked) [Example 11] | 0 (0) | 0 (0) | 0 (0) | 0 (0) | 0 (0) | 3 (30-44) | 0 (0) | 6 (75-89) | 0 (0) | 0 (0) | 0 (0) | 0 (0) | 0 (0) | 0 (0) | 0 (0) | 4 (45-59) | 7 (90-95) | 0 (0) | 0 (0) | 3 (30-44) | SBC disease control rating (Cercospora beticola; 200 ppm spray): 3 (30-44); PYTHU inhibition of mycelial growth rating (Pythium ultimum; 1 ppm): 0; PYTHU inhibition of mycelial growth rating (Pythium ultimum; 10 ppm): 1; PYTHU inhibition of mycelial growth rating (Pythium ultimum; 25 ppm): 1; RHIZSO inhibition of mycelial growth rating (Rhizoctonia solani; 1 ppm): 0; RHIZSO inhibition of mycelial growth rating (Rhizoctonia solani; 10 ppm): 0; RHIZSO inhibition of mycelial growth rating (Rhizoctonia solani; 25 ppm): 0; PSDCH inhibition of mycelial growth rating ([2]; 1 ppm): 0; PSDCH inhibition of mycelial growth rating ([2]; 10 ppm): 0; PSDCH inhibition of mycelial growth rating ([2]; 25 ppm): 0
CCCn1cnn2c(=NC(C)C(F)(F)F)c(-c3c(F)cc(OC)cc3F)c(Cl)nc12 (centres unmarked) [Example 12] | 0 (0) | 0 (0) | 0 (0) | 0 (0) | 0 (0) | 0 (0) | 0 (0) | 0 (0) | 0 (0) | 0 (0) | 0 (0) | 0 (0) | 0 (0) | 0 (0) | 0 (0) | 0 (0) | 0 (0) | 0 (0) | 0 (0) | 0 (0) | SBC disease control rating (Cercospora beticola; 200 ppm spray): 0 (0)
CC(N=c1c(-c2ccccc2Cl)c(Cl)n(C)c2ncnn12)C(F)(F)F (centres unmarked) [Example 6] |  |  | 0 (0) | 0 (0) | 0 (0) | 0 (0) | 0 (0) | 0 (0) | 0 (0) | 0 (0) | 0 (0) | 0 (0) | 0 (0) | 0 (0) | 5 (60-74) | 5 (60-74) | 5 (60-74) | 0 (0) | 0 (0) | 7 (90-95) | PYTHU inhibition of mycelial growth rating (Pythium ultimum; 1 ppm): 0; PYTHU inhibition of mycelial growth rating (Pythium ultimum; 10 ppm): 0; PYTHU inhibition of mycelial growth rating (Pythium ultimum; 25 ppm): 0; RHIZSO inhibition of mycelial growth rating (Rhizoctonia solani; 1 ppm): 0; RHIZSO inhibition of mycelial growth rating (Rhizoctonia solani; 10 ppm): 0; RHIZSO inhibition of mycelial growth rating (Rhizoctonia solani; 25 ppm): 0; PSDCH inhibition of mycelial growth rating ([2]; 1 ppm): 0; PSDCH inhibition of mycelial growth rating ([2]; 10 ppm): 1; PSDCH inhibition of mycelial growth rating ([2]; 25 ppm): 0
CC(N=c1c(-c2ccc(F)cc2F)c(Cl)nc2n(C)cnn12)C(F)(F)F (centres unmarked) [Example 16] |  |  | 0 (0) | 0 (0) | 0 (0) | 0 (0) | 0 (0) | 5 (60-74) | 0 (0) | 0 (0) | 0 (0) | 0 (0) |  | 5 (60-74) | 0 (0) | 0 (0) | 6 (75-89) | 0 (0) | 0 (0) | 7 (90-95) | PYTHU inhibition of mycelial growth rating (Pythium ultimum; 1 ppm): 0; PYTHU inhibition of mycelial growth rating (Pythium ultimum; 10 ppm): 5; PYTHU inhibition of mycelial growth rating (Pythium ultimum; 25 ppm): 7; RHIZSO inhibition of mycelial growth rating (Rhizoctonia solani; 1 ppm): 5; RHIZSO inhibition of mycelial growth rating (Rhizoctonia solani; 10 ppm): 7; RHIZSO inhibition of mycelial growth rating (Rhizoctonia solani; 25 ppm): 7; PSDCH inhibition of mycelial growth rating ([2]; 1 ppm): 0; PSDCH inhibition of mycelial growth rating ([2]; 10 ppm): 0; PSDCH inhibition of mycelial growth rating ([2]; 25 ppm): 0
CCCn1c(Cl)c(-c2c(F)cc(F)cc2F)c(=NC(C)C(F)(F)F)n2ncnc12 (centres unmarked) [Example 2] | 0 (0) | 0 (0) | 0 (0) | 0 (0) | 0 (0) | 0 (0) | 0 (0) | 0 (0) | 0 (0) | 0 (0) | 1 (1-14) | 1 (1-14) | 4 (45-59) | 2 (15-29) | 0 (0) | 0 (0) | 5 (60-74) | 0 (0) | 1 (1-14) | 1 (1-14) | SBC disease control rating (Cercospora beticola; 200 ppm spray): 3 (30-44)
